According to ChEMBL document CHEMBL1158262, “Novel beta-methoxyacrylates of the 9-methoxystrobilurin and oudesmansin classes produced by the basidiomycete Favolaschia pustulosa” (J Nat Prod, 1996):
Values after ≈ are worked out from the molar mass of the structure shown. Active and inactive are the calls of the source. The calls are words filed in the database; no cut-off is given here.

Legend:
Candida albicans = test: Antifungal activity against Candida albicans after 18 hrs by serial dilution method; format: functional
Bacillus subtilis = test: Antibacterial activity against Bacillus subtilis after 18 hrs by serial dilution method; format: functional
JIYOYE [1] = test: Cytotoxicity against human Jijoye cells after 5 days by XTT assay; format: functional, cell-based; settings: 120 h
JIYOYE [2] = test: Cytotoxicity against human Jijoye cells after 2 days by XTT assay; format: functional, cell-based

With `C=CC(C)(C)OC(C)(C)C1COc2ccc(/C=C/C(OC)=C(C)\C(=C/OC)C(=O)OC)cc2O1` (stereo not given) the MIC (Candida albicans) was 6 µM (≈ 2.84 µg/mL), the MIC (Bacillus subtilis) was 0.9 µM (≈ 0.425 µg/mL) and the IC50 (JIYOYE [1]) was 1.8 nM. For the same molecule, the CC50 (JIYOYE [1]; read-out: LC50 (the source's name)) was 1.8 nM and the Activity (JIYOYE [2]) was “inactive”.
